Patent US20250092383A1, “COMPOUNDS AND METHODS FOR FBXO22-MEDIATED PROTEIN DEGRADATION” (Northwestern University, priority 2023, published 2025)
Peptide text beside a SMILES is read from it. * marks the point of attachment. Cbz = O=C(OCc1ccccc1)*

Legend:
Type in all cases: cell-based
[1] = target: T1, BRD4 (Homo sapiens, UniProt O60885); test: BRD4 degradation in A549 wild-type and FBXO22-knockout cells (western blot); conditions: 1 and 2 μM, 24 h
T1 construct: endogenous in cells; host or cells: A549 wild type and FBXO22 knockout
Text: (§1) FIGS. 5A-5E show harnessing FBXO22 for the degradation of BRD4 and EML4-ALK. […] The bar graph represents quantification of the BRD4/β-actin protein content. Data are presented as the mean values (n=2 biological independent samples). […] Data are presented as the mean values (n=2 biological independent samples). […] The bar graph represents quantification of the EML4-ALK/β-actin protein content. Data are presented as the mean values (n=2 biological independent samples).
(§2) Next, the potential of FBXO22 to facilitate the degradation of additional proteins was investigated. Bromodomain-containing protein 4 (BRD4) was chosen due to its notable physiological role and the availability of a selective ligand, JQ1. The compound, 22-JQ1 (3) was synthesized by coupling the FBXO22 binding moiety to JQ1 (FIG. 5a). […] Subsequently, a global proteomic analysis was performed in A549 wild-type and FBXO22-knockout cells treated with 22-JQ1. […] 22-TAE incorporates the FBXO22 binding moiety coupled with a defined anaplastic lymphoma kinase (ALK) ligand (FIG. 5d). FBXO22 knockout was generated in H2228, a non-small cell lung cancer cell line expressing the echinoderm microtubule-associated protein-like 4 (EML4)-ALK fusion protein.

[2] = target: T1, BRD4; test: Global proteomic analysis in A549 wild-type and FBXO22-knockout cells treated with 22-JQ1; conditions: 2 μM, 24 h
Text: as §1, §2

[3] = target: T2, EML4-ALK fusion protein (Homo sapiens, UniProt Q8NEZ5+Q9HC35+Q9UM73); test: EML4-ALK degradation in H2228 wild-type and FBXO22-knockout cells; conditions: 1 and 2 μM, 24 h
T2 construct: endogenous in cells; host or cells: H2228 wild type and FBXO22 knockout
T2 sequence (Q9HC35+Q9UM73 fused): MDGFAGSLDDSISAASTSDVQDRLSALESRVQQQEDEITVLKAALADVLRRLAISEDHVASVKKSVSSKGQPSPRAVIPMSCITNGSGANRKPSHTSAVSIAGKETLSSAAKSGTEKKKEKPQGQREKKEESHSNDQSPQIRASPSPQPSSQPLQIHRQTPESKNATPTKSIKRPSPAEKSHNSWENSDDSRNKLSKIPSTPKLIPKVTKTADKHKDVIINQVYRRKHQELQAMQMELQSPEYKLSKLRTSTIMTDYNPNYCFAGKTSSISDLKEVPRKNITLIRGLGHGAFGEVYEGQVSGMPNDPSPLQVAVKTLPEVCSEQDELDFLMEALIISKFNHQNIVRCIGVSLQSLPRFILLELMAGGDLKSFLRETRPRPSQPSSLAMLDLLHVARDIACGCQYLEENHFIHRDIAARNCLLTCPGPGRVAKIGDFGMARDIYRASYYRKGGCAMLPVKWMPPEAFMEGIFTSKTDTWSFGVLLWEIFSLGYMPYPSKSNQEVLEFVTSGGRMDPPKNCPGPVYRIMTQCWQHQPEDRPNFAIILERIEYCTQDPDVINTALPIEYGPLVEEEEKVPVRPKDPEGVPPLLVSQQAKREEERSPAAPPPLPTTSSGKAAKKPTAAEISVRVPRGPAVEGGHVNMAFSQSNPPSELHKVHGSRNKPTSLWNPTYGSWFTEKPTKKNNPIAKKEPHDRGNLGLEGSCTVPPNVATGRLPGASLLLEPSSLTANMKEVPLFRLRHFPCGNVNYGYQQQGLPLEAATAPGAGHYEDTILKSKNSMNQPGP
T2 sequence (Q8NEZ5 whole entry, the tested form may be a part): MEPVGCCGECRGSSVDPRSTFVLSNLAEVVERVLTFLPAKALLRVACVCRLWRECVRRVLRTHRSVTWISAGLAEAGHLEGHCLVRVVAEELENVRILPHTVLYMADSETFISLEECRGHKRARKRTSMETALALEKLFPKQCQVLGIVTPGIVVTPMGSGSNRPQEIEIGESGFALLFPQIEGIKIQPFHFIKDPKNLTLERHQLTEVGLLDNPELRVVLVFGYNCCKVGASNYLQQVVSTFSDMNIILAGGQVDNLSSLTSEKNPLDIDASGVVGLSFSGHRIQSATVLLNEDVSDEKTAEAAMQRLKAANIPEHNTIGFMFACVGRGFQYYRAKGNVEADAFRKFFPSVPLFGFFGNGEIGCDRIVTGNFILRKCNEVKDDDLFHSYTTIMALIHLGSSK
T2 sequence (P63208 2-163 partner limits assumed): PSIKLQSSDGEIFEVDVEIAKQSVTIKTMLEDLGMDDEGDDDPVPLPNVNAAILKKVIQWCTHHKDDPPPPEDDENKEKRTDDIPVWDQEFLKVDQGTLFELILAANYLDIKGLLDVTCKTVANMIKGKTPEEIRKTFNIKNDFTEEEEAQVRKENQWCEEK
T2 sequence (Q13616 whole entry partner, the tested form may be a part): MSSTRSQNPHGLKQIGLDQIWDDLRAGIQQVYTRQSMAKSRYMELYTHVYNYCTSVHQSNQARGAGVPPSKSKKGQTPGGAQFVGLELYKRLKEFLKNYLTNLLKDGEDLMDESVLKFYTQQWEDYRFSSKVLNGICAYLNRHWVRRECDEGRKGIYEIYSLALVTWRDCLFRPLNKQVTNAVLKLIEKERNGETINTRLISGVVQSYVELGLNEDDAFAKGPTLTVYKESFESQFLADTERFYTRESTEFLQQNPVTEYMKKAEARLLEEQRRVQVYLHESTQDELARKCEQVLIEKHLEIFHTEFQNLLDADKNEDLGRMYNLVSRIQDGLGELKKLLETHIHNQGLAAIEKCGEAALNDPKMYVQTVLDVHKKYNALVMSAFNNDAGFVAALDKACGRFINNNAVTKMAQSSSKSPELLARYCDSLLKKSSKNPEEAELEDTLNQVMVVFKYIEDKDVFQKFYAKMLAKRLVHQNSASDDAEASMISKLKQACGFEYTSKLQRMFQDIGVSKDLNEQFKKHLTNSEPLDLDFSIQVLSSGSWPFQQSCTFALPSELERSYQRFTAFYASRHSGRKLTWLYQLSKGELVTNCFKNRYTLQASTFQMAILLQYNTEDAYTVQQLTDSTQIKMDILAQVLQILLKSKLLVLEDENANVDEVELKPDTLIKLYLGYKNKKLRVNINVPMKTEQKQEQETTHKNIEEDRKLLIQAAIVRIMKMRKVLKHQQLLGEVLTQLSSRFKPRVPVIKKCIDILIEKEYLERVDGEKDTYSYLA
T2 sequence (P62877 whole entry partner, the tested form may be a part): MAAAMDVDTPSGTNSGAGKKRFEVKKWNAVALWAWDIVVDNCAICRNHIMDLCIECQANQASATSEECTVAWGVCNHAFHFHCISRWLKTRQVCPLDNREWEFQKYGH
Text: as §1, §2

[4] = target: T3, FKBP12 (mouse FBXO22) (UniProt P62942+Q78JE5); test: FKBP12 degradation in HEK293T cells expressing mouse FBXO22; conditions: HEK293T cells expressing mouse FBXO22 wildtype
T3 construct: expressed in transfected cells; host or cells: HEK293T
T3 sequence (P62942 2-108): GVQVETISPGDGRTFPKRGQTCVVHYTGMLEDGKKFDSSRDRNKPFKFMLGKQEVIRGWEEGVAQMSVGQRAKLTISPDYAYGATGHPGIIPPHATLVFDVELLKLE
T3 sequence (Q78JE5 whole entry): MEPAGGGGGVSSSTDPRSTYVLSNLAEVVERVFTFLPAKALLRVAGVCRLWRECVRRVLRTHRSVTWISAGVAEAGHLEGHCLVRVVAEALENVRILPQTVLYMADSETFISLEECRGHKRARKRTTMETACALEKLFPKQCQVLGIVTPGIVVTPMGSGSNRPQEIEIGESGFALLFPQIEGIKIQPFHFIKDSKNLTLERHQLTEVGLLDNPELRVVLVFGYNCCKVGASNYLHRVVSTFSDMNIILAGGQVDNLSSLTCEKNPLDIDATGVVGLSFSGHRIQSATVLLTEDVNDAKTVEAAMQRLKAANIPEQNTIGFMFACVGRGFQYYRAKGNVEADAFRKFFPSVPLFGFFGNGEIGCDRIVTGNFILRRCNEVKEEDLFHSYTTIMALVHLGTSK
T3 sequence (P63208 whole entry partner): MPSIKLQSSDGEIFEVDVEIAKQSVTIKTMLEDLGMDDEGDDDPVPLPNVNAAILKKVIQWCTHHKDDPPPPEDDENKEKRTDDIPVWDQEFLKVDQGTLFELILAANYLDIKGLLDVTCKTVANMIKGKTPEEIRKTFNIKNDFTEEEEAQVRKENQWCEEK
Text: (§3) FIGS. 3A-3H show FBXO22 C227 and C228 are involved in 22-SLF-mediated degradation of FKBP12. […] Among 5,650 quantified IA-DTB-modified peptides, four cysteines were identified on FBXO22 (C83, C117, C228, and C365). […] Data are presented as the mean values (n=2 biological independent samples for DMSO treatment; n=3 biological independent samples for 22-SLF Treatment). […] The bag graph represents quantification of the FLAG-FKBP12/HSP90 protein content. Data are presented as mean values (n=2 biological independent samples). […] The bar graph represents quantification of the FLAG-FKBP12/HSP90 protein content. Data are presented as the mean values (n=2 biological independent samples).
Intriguingly, the peptide sequence containing the two consecutive cysteines (C227 and C228) is identical between human and mouse (FIG. 3f). To explore whether mouse FBXO22 can facilitate 22-SLF-induced FKBP12 degradation and if the conserved cysteines (C226 and C227 in mouse FBXO22) are pivotal, HEK293T cells expressing mouse FBXO22 wildtype, C226A, C227A, and C226AC227A, were generated.

[5] = target: FKBP12 (Homo sapiens, UniProt P62942); test: Western blot of FLAG-FKBP12 degradation in HEK293T cells expressing HA-FBXO22; parameters: expressed in transfected cells; host or cells: HEK293T; conditions: MG132 (1 μM), MLN4924 (1 μM), SLF (25 μM)
Chain of FKBP12 (P62942 whole entry): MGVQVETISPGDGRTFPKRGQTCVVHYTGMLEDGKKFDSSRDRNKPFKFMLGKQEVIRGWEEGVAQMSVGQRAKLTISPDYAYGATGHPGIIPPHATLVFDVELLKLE
Experimental: The bar graph represents quantification of the FLAG-FKBP12/HSP90 protein content. Data are presented as the mean values±s.e.m. […] HEK293T cells expressing HA-FBXO22 were treated with 0.025-15 μM 22-SLF for 8 h. The graph represents quantification of the FLAG-FKBP12/HSP90 protein content. Data are presented as the mean values (n=2 biological independent samples). […] The bar graph represents quantification of the FLAG-FKBP12/HSP90 protein content. KO, knockout; WT, wild type. Data are presented as the mean values (n=2 biological independent samples). […] The bar graph represents quantification of the FLAG-FKBP12/HSP90 protein content. Data are presented as the mean values±s.e.m. […] The result is representative of two independent experiments with similar results. WCL, whole-cell lysate; IP, immunoprecipitate.
as §3
FIG. 11A-11B show the acrylamide variant of 22-SLF, 22a-SLF, induced the degradation of FKBP12. […] HEK293T cells expressing HA-FBXO22 were treated with 0.5, 1, or 2 μM of 22-SLF or 22a-SLF for 8 hours. The graph represents quantification of the FLAG-FKBP12/HSP90 protein content. Data are presented as mean values (n=2 biological independent samples).
Next, Western blot analysis was used to measure the degradation of FKBP12 induced by 22-SLF. To achieve this, FLAG-tagged FKBP12 and HA-tagged FBXO22 were stably overexpressed in HEK293T cells, followed by subjecting the cells to varying concentrations of 22-SLF. […] Moreover, 22-SLF's effect on FLAG-FKBP12 degradation was concentration-dependent (FIG. 2a). […] The rescue enabled by MLN4924 indicates the involvement of a Cullin-RING ligase (CRL) in the degradation process. This is consistent with FBXO22 belonging to SKP1-CUL1-F-box protein (SCF) ubiquitin ligase complexes, a subfamily of CRL. […] To provide a more comprehensive insight into 22-SLF-induced FKBP12 degradation, a dose-dependent degradation experiment using 11 concentrations of 22-SLF ranging from […] to 15 μM was conducted. This experiment enabled determination of two parameters, the Dmax value, which reached 89%, and the half-maximal degradation concentration (DC50) value, which measured at 0.5 μM (FIG. 2B). […] Collectively, this array of data supports the canonical mechanism of ligand-induced protein degradation. In this mechanism, 22-SLF orchestrates the recruitment of FBXO22 to FKBP12, culminating in the proteasomal degradation of FKBP12.
To identify the cysteine residue(s) in FBXO22 engaged with 22-SLF, HA-FBXO22-expressing HEK293T cells were treated with either DMSO or 22-SLF (2 μM, 2 hours). Using competitive cysteine-directed activity-based protein profiling (ABPP), a chemical proteomics for the measurement of target engagement, the degree of blockade of iodoacetamide-desthiobiotin (IA-DTB)-modified cysteines on FBXO22 was quantified. From a pool of 5,650 quantified IA-DTB-modified peptides, four cysteines on FBXO22 (C83, C117, C228, and C365) (FIG. 3a) were identified, with approximately 20% of FBXO22 C228 being blocked by 22-SLF treatment (FIG. 3b), indicating the potential interaction with this cysteine by 22-SLF. Consequently, C228 was mutated to alanine and HA-FBXO22 C228A-expressing HEK293T cells were generated (FIG. 3c). […]

Cc1sc2c(c1C)C(c1ccc(Cl)cc1)=N[C@@H](CC(=O)NCCCOCCOCCOCCCN(C(=O)CCl)C(C(=O)NCc1ccccc1)c1nc3ccccc3s1)c1nnc(C)n1-2 (stereo partly drawn) [22-JQ1]
BRD4 degradation, A549 FBXO22 knockout cells [1]: abolished upon FBXO22 knockout
BRD4 degradation, A549 wild-type cells [1]: promoted the degradation of BRD4
BRD4 degradation in global proteomics [2]: potent degradation of BRD4 in A549 wild-type but not FBXO22-knockout cells

COc1cc(N2CCN(CCOCCOCCN(C(=O)CCl)C(C(=O)NCc3ccccc3)c3nc4ccccc4s3)CC2)ccc1Nc1ncc(Cl)c(Nc2ccccc2S(=O)(=O)C(C)C)n1 (stereo not drawn) [22-TAE]
EML4-ALK degradation, FBXO22-knockout H2228 cells [3]: no such degradation was observed
EML4-ALK degradation, H2228 wild-type cells [3]: induced the degradation of EML4-ALK fusion protein

CC(C)C[C@@H](C=O)NC(=O)[C@H](CC(C)C)NC(=O)[C@H](CC(C)C)NC(=O)OCc1ccccc1 [MG132, reference compound] (Cbz-Leu-Leu-Leu-aldehyde)
Blockade of 22-SLF-induced FKBP12 degradation, mouse FBXO22 [4]: blocked
Blockade of 22-SLF-induced loss of FLAG-FKBP12 expression [5]: blocked

NS(=O)(=O)OC[C@@H]1C[C@@H](n2ccc3c(N[C@H]4CCc5ccccc54)ncnc32)C[C@@H]1O [MLN4924, reference compound]
Blockade of 22-SLF-induced FKBP12 degradation, mouse FBXO22 [4]: blocked
Blockade of 22-SLF-induced loss of FLAG-FKBP12 expression [5]: blocked
